Results: US20210244698A1, “DIFFUSION ENHANCING COMPOUNDS AND THEIR USE WITH THROMBECTOMY AND EMBOLECTOMY AND OTHER VASCULAR DISEASE PROCEDURES” (DIFFUSION PHARMACEUTICALS LLC, priority 2018, published 2021)

Experiments:
[1] = Solubility of TSC in water / aqueous solution with cyclodextrin; assay type: physicochemical
Excerpt: (§1) The use of gamma-cyclodextrin with TSC increases the solubility of TSC in water by 3-7 times. […] The solutions need not be equal-molar. The incorporation of the gamma cyclodextrin also allows for TSC to be absorbed into the blood stream when injected intramuscularly.
A trans carotenoid such as TSC can be formulated with a cyclodextrin as noted above and a non-metabolized sugar such as mannitol (e.g. d-mannitol to adjust the osmotic pressure to be the same as that of blood). Solutions containing over 20 mg TSC/ml of solution can be made this way. This solution can be added to isotonic saline or to other isotonic solutions in order to dilute it and still maintain the proper osmolality.

[2] = Absorption of TSC into the blood stream after intramuscular injection with gamma cyclodextrin; assay type: in vivo; details: rats
Excerpt: as §1

[3] = Stability of TSC in formulation as a function of pH; assay type: physicochemical
Procedure: Mannitol can be used to adjust osmolality and its concentration varies depending on the concentration of other ingredients. The glycine is held constant. […] The use of glycine is compatible with lyophilization. Alternatively, the TSC and cyclodextrin is formulated using a 50 mM bicarbonate buffer in place of the glycine.

## CC(/C=C/C=C(\C)C(=O)[O-])=C\C=C\C=C(C)\C=C\C=C(/C)C(=O)[O-].[Na+].[Na+] [TSC, trans sodium crocetinate]
[1]; TSC and gamma-cyclodextrin, aqueous solution
  TSC content of aqueous solution: ≤ 44 milligrams of TSC per ml of solution
[1]; formulated with a cyclodextrin and mannitol
  TSC content of solution: over 20 mg TSC/ml of solution
[2]
  absorption into the blood stream when injected intramuscularly: Absorption is quick
[3]
  stability versus pH: more stable at higher pHs
